Measured values taken from patent US8044045B2, “Indazole-carboxamide compounds as 5-HT4 receptor agonists” (Theravance, Inc., priority 2004, dated 2011).

Experiment: Pharmacokinetic study in the rat
Assay type: in vivo
Description: Aqueous solution formulations of test compounds were prepared in 0.1% lactic acid at a pH of between about 5 and about 6. Male Sprague-Dawley rats (CD strain, Charles River Laboratories, Wilmington, Mass.) were dosed with test compounds via intravenous administration (IV) at a dose of 2.5 mg/kg or by oral gavage (PO) at a dose of 5 mg/kg. The dosing volume was 1 mL/kg for IV and 2 mL/kg for PO administration. Serial blood samples were collected from animals pre-dose, and at 2 (IV only), 5, 15, and 30 min, and at 1, 2, 4, 8, and 24 hours post-dose. Concentrations of test compounds in blood plasma were determined by liquid chromatography-mass spectrometry analysis (LC-MS/MS) (MDS SCIEX, API 4000, Applied Biosystems, Foster City, Calif.) with a lower limit of quantitation of 1 ng/mL.
Standard pharmacokinetic parameters were assessed by non-compartmental analysis (Model 201 for IV and Model 200 for PO) using WinNonlin (Version 4.0.1, Pharsight, Mountain View, Calif.). The maximum in the curve of test compound concentration in blood plasma vs. time is denoted Cmax. The area under the concentration vs. time curve from the time of dosing to the last measurable concentration (AUC(0-t)) was calculated by the linear trapezoidal rule. Oral bioavailability (F(%)), i.e. the dose-normalized ratio of AUC(0-t) for PO administration to AUC(0-t) for IV administration, was calculated as: F(%)=AUCPO/AUCIV×DoseIV/DosePO×100%

[1] = male Sprague-Dawley rats, blood plasma, PO 5 mg/kg

## CC(=O)N1CCN(CCN2[C@@H]3CC[C@H]2CC(NC(=O)c2nn(C(C)C)c4ccccc24)C3)CC1 (stereo partly drawn) [Example 1, 1-isopropyl-1H-indazole-3-carboxylic acid {(1S,3R,5R)-8-[2-(4-acetylpiperazin-1-yl)ethyl]-8-azabicyclo[3.2.1]oct-3-yl}amide]
[1]
  AUC(0-t): 730 ng·h/mL
  Cmax: 250 ng/mL
rat, PO 5 mg/kg versus IV 2.5 mg/kg, dose-normalized AUC(0-t) ratio
  oral bioavailability (F(%)): about 100%
